Where no end group is shown, it is not given here.
Legend:
human HDAC6 = target: T1, human HDAC6 (Homo sapiens, UniProt Q9UBN7); assay: in vitro biochemical HDAC6 deacetylation assay (LC-MS)
T1 construct: made in house
T1 sequence (Q9UBN7 1-1215): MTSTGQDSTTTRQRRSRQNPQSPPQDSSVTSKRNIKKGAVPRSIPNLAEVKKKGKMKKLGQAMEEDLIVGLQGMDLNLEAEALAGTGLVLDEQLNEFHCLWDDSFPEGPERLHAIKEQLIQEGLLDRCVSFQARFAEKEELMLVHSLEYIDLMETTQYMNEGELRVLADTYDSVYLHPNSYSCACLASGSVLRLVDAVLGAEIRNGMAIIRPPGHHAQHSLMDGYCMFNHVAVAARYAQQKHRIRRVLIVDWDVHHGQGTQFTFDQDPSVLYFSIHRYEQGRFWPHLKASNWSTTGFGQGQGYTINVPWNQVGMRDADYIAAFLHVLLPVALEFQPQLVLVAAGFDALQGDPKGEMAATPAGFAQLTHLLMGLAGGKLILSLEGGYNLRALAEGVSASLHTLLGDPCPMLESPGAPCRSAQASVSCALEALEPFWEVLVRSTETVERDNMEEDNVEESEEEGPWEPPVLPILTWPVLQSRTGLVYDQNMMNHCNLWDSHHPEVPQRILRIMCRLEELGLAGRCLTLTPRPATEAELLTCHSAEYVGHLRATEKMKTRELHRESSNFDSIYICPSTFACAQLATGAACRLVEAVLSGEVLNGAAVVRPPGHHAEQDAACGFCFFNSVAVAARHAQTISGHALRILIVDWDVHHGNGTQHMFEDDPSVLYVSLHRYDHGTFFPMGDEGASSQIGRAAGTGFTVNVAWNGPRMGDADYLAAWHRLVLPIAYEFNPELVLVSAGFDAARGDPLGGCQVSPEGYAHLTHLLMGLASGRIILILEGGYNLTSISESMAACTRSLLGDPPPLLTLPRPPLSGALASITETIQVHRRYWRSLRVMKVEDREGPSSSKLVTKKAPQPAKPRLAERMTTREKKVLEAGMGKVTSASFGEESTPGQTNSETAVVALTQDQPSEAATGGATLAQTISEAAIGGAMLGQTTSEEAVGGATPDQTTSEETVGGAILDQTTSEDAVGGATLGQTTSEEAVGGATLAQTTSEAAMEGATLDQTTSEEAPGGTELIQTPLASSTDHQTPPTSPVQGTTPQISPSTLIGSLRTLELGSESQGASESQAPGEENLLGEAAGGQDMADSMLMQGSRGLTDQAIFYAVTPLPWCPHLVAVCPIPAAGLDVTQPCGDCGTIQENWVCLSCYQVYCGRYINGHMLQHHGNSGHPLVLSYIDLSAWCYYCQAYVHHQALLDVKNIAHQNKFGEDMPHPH
Description: Deacetylation reactions were detected by discontinuous liquid chromatography-mass spectrometry (LC-MS). […] All assays were performed in triplicates.
In vitro biochemical HDAC6 deacetylation assays were performed as follows. Activity assay with human HDAC6 was based on a discontinuous liquid chromatography-mass spectrometry (LC-MS) assay as reported in Hai and Christianson, 2016. Briefly, 0.05 μM of HDAC6 was incubated with 100 μM of substrate Ac-LHSGTAK(ac)SVT-COOH in HEPES buffer [20 mM HEPES (pH 7.5), 100 mM NaCl, 5 mM KCl, 1 mM MgCl2] for 20 min at room temperature, and the reaction was quenched by the addition of acetonitrile (equal volume to the reaction solution). […] The assay was run in the presence of 10 μM of HDAC6 specific inhibitor ACY-1215 as a negative control. All the assays were performed in triplicates. The peptide was custom synthesized by Genscript. The human HDAC6 construct was expressed and purified as described in Hai and Christianson, 2016.

[1] = system: ARID1A-mutated TOV21G and OVISE cells; assay: apoptosis (Annexin V, cleaved caspase 3, cleaved PARP p85) in ARID1A-mutated cells; assay type: cell-based, human
Description: FIG. 10 illustrates the finding that HDAC6 inhibition induces apoptosis in ARID1A-inactivated cells. […] Cells were collected and stained for apoptotic markers Annexin V. Apoptotic cells were quantified. Error bars represent standard error of the mean. The p-value was calculated via a two-tailed t-test.
FIG. 11 illustrates the results of the experiments of FIG. 10, but examined for apoptotic markers cleaved caspase 3 and cleaved PARP p85 by immunoblot. GAPDH expression was used as a loading control.
Cells were collected, incubated with an Annexin V-FITC antibody and subjected to flow cytometry analysis. Annexin V-positive cells (apoptotic) were measured with FloJo software. Mean of three independent experiments with S.E.M.
FIG. 78 illustrates percent apoptosis based on Annexin V staining in ARID1A mutated TOV21G cells treated with 1.25 μM ACY1215, 20 μM pan-caspase inhibitor Q-VD-Oph, or a combination for 48 hrs.
FIG. 79 illustrates percent apoptosis based on Annexin V staining in ARID1A mutated TOV21G cells treated with 1.25 μM ACY1215 for 48 hrs with or without knockdown of caspase 3 or caspase 9.
For immunoblotting, protein was isolated as described in Bitler et al. Nat. Med. 2015, 21, 231-238. Briefly, protein was extracted with RIPA buffer (150 mM NaCl, 1% NP40, 0.5% sodium deoxycholate, 0.1% SDS, 50 mM Tris pH 8.0, and 1 mM PMSF). Protein was separated on a SDS-PAGE and transferred to PVDF membrane. For immunoblot of p53 post-translation modifications, cells were treated with a proteasome inhibitor MG132 (10 μM) to stabilize p53 protein.
Annexin V and mitochondria membrane potentials were measured as follows. Phosphatidylserine externalization was detected using an Annexin V staining kit (Life Technologies) following the manufacturer's instructions. To measure change in mitochondria membrane potential cells were treated with 200 nM of tetramethylrhodamine, ethyl ester (TMRE; Abcam) for 15 min at 37° C. Annexin V and TMRE-positive cells were detected using the LSR18 and analyzed with the FlowJo software module.

[2] = system: ovarian clear cell carcinoma cell lines with known ARID1A mutational status; assay: colony formation assay, panel of ovarian clear cell carcinoma cell lines with or without ARID1A mutation; assay type: cell-based, human; conditions: 12 days
Description: After 12 days culture, integrated density of colony formed by the indicated cells was quantified using NIH Image J software, and values were normalized to vehicle control. Data represent triplicates from independent experiments. Error bars represent S.E.M. The p-value was calculated via two-tailed t-test.
Indicated ovarian clear cell carcinoma cell lines with known ARID1A mutational status were treated with the indicated concentration of HDAC6 inhibitor CAY10603 or vehicle control in a colony formation assay. After 12 days culture, integrated density of colony formed by the indicated cells was quantified using NIH Image J software, and values were normalized to vehicle control. Data represent triplicates from independent experiments. Error bars represent S.E.M.
Colony formation assays were performed as follows. Cell lines were infected with lentivirus pLKO.1-shRNAs or pLKO.1-control with puromycin selection marker. Infected cells were selected with 1 μg/mL of puromycin for 72 hours and the selected cells were seeded in 12-well or 24-well plates. Cell medium was changed every three days with appropriate drug doses for 14 days or until control wells became confluent. Colonies were washed twice with PBS and fixed with 10% methanol and 10% acetic acid in distilled water. Fixed colonies were stained with 0.005% crystal violet. Integrated density was measured using NIH ImageJ software.

[3] = system: p53 target genes (BAX, PUMA, NOXA, CDKN1A) in ARID1A-mutated TOV21G cells; assay: RNA-seq of p53 target genes; assay type: cell-based, human; conditions: 312 nM
Text: RNA was extracted and utilized for next generation sequencing (RNA-seq). Expression of p53 target genes known to regulate apoptosis such as BAX, PUMA and NOXA, and known to regulate cell cycle arrest such as CDKN1A were not altered by HDAC6 inhibition in RNA-seq analysis.

Ac-LHSGTAK(Ac)SVT
specific activity of HDAC6 with this substrate (human HDAC6): 3.4±0.4 nmol product·nmol enzyme^−1·min^−1

c1cc(SSc2ccns2)sn1 [NU9056]
effect on apoptosis induced by ACY1215 ([1]; TIP60 inhibitor with ACY1215): suppressed apoptosis | p53K120Ac levels ([1]; TIP60 inhibitor with ACY1215): reduction of the p53K120Ac levels

Ala-Lys(Ac)-Ala-NH2
specific activity of HDAC6 with this substrate (human HDAC6): 10.5±0.5 nmol product·nmol enzyme^−1·min^−1

CC(C)(C)OC(=O)Nc1ccc(-c2cc(C(=O)NCCCCCCC(=O)NO)no2)cc1 [CAY10603, tert-butyl 4-(3-((7-(hydroxyamino)-7-oxoheptyl)carbamoy)isoxazol-5-yl)phenylcarbamate]
sensitivity of ARID1A-mutated cells compared with ARID1A wild-type cells [2]: more sensitive | expression of p53 target genes (BAX, PUMA, NOXA, CDKN1A) [3]: not altered

CC(C)[C@H](NC(=O)c1ccc2ccccc2n1)C(=O)N[C@@H](CC(=O)O)C(=O)COc1c(F)cccc1F [Q-VD-Oph]
effect on apoptosis induced by ACY1215 ([1]; TOV21G, 20 μM Q-VD-Oph with 1.25 μM ACY1215, 48 hrs): significantly suppressed the apoptosis
